The values that follow come from PMC5590943, “Pharmacological characterisation of S 47445, a novel positive allosteric modulator of AMPA receptors” (PLoS ONE, 2017).

In one series the test system is α1 (non-selective). Nature of the series: Binding assay, [3H]prazosin.
The test system of series [1] is Ca2+ channel (L, verapamil site) phenylalkylamines). Nature of the series: Binding assay, [3H](-)D 888.
The next series has as its system Male Wistar rats. Nature of the series: Functional observation battery in rats (Irwin). It is filed as in vivo, rat. The method, then: Any effects on body temperature were also assessed. Methods were adapted from those described by Irwin, 1968 for detecting behavioural effects in mice.
Male Wistar rats (Depré breeding centre, France), 6 weeks of age (160.0–190.6 g) on the day of randomisation were used. On the day of the test, animals were first scored using the Irwin standardised observation battery, and the body temperature was measured to establish baseline measurements. Groups of rats were then orally treated with S 47445 (50, 200, 500 and 1000 mg/kg) or its vehicle or clonidine, a reference item (3 mg/kg in water). The Irwin scores as well as measurement of body temperature were performed again at 1, 2, 4, 6 and 24 hours after administration of S 47445. Individual observation data were presented as a score attributed to each behavioural sign (intensity and relevance). For observations with absence or presence, the number of animals with the sign was provided per group. For other observations, the median value for each sign per time was presented per group. For body temperature, data were expressed as variations from predose values. […] The treatment effect on body temperature was analysed using one way ANOVA followed by Newman-Keul’s post hoc test. […]

The target of another series is A2A (h) (Homo sapiens, UniProt P29274). Kind of series: Binding assay, [3H]CGS 21680.
A further series concerns GABA (non-selective). Kind of series: Binding assay, [3H]GABA.
Another series deals with mature form of BDNF. On the set-up: method as in PMID 7718245. Particulars: aged rats, from the dose of 1 mg/kg; cited from earlier work.
A further series has as its system NMDA. Nature of the series: Binding assay, [3H]CGP 39653, rat cerebral cortex membranes.
In series [2] the test system is Ca2+ channel (L, diltiazem site) (benzothiazepines). Kind of series: Binding assay, [3H]diltiazem.
Series [3] relates to Ca2+ channel (L, DHP site). Kind of series: Binding assay, [3H](+)PN 200-110.
The target in a further series is 5-HT1B (Rattus norvegicus, UniProt P28564). Nature of the series: Binding assay, [125I]CYP (+ 30 μM (-)propranolol). Particulars: probe [125I]CYP.
Another series deals with male C57Bl/6 mice. Kind of series: Spontaneous alternation in a T-maze in mice. It is filed as in vivo, mouse. Particulars: 180 s inter-trial delay. The protocol: Novel object recognition and T-maze studies were conducted respectively in male OFA rats (150–175 g, Charles River, Saint-Germain-Nuelles, France) and male C57Bl/6 mice (5.5–6.5 month-old, Charles River, Saint-Germain-Nuelles, France). Animals were housed in collective cages with continuous access to tap water and food on a 12 h light-dark cycle, in a temperature-controlled (21 ± 1°C) and ventilated room. On completion of studies subjects were euthanized by either CO2 inhalation or intraperitoneal (i.p.) lethal pentobarbital injection. The novel object recognition test was used as the primary in vivo screening assay to identify AMPA-PAMs. The T-maze task was performed using a modified continuous performance procedure previously described in mice. […]
Behavioral testing was conducted in a T-shaped maze made of grey Plexiglas using mice. […] Photoelectric cells detected the position of the mouse on the maze. […]
Both alternation performance and latency of entry were assessed. […] The successive sequence of visits for the 7 first trials determined the level of alternation. A percentage of alternation was calculated for each mouse, and corresponded to the number of alternations performed relative to the number maximal of alternation (n = 6). […] The mean latency of entry from trial 2 to trial 7 was calculated for each mouse. […]

pKi: −log10 of the molar value. Some results are limits rather than exact numbers.

A2A (h), sequence (P29274 whole entry): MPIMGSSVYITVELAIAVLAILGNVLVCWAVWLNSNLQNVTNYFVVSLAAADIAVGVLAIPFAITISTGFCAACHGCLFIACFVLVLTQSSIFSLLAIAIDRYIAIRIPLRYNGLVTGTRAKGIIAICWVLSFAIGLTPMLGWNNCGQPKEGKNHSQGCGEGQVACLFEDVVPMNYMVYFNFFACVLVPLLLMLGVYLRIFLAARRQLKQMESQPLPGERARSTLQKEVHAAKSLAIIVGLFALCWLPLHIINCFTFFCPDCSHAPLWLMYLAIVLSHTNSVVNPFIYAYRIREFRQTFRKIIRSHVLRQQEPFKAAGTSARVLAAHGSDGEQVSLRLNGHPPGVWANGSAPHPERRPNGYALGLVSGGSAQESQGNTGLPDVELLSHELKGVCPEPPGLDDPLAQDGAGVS
5-HT1B, sequence (P28564 whole entry): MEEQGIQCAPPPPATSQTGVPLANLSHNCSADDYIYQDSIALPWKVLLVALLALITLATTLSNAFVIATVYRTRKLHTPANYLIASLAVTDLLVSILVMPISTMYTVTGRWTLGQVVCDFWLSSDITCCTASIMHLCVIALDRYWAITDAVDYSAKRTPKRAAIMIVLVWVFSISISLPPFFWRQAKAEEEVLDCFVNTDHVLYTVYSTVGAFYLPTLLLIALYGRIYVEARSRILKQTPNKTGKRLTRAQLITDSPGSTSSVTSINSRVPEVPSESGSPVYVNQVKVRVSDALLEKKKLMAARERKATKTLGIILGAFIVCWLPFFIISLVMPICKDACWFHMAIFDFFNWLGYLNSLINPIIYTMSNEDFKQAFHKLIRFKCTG

Take `O=C1c2cc3nnn(CCc4cccc(F)c4)c(=O)c3cc2OCN1C1CC1` [S 47445, 8-cyclopropyl-3-[2-(3-fluorophenyl)ethyl]-7,8-dihydro-3H-[1,3]oxazino[6,5-g][1,2,3]benzotriazine-4,9-dione]: the “% Inhibition of control specific binding” value with α1 (non-selective) (S 47445 1.0E-05 M) was 1%; with α1 (non-selective) (S 47445 1.0E-07 M), -5%; in series [1] (S 47445 1.0E-05 M), -1%; in series [1] (S 47445 1.0E-07 M) it was 4%; at A2A (h) (S 47445 1.0E-05 M) it was 9%; on A2A (h) (S 47445 1.0E-07 M), -8%. Moreover, the “% Inhibition of control specific binding” value with GABA (non-selective) (S 47445 1.0E-05 M) was 7%; in the series on GABA (non-selective) (S 47445 1.0E-07 M), 4%; with NMDA (S 47445 1.0E-05 M) it was -1%; with NMDA (S 47445 1.0E-07 M), 2%; in series [2] (S 47445 1.0E-05 M) it was 25%; in series [2] (S 47445 1.0E-07 M), -6%. The “% Inhibition of control specific binding” value in series [3] (S 47445 1.0E-05 M) is given as 1%; in series [3] (S 47445 1.0E-07 M), -16%. The “Body temperature and behavior” value in the series on Male Wistar rats (50, 200, 500 and 1000 mg/kg oral acute) was “no significant effect”. In addition, in the series on Male Wistar rats (up to 1000 mg/kg p.o.), the Spontaneous epileptic seizures entry is on record as “No occurrence”. Also, in the series with mature form of BDNF, the “Neurotrophic effect on BDNF proteins” value is listed as “inducing mature form of BDNF proteins”. At NMDA (read-out: Ki, glutamate binding site, n = 2), the negative-log Ki (pKi) was less than 5.00. The inhibition at 100 nM at 5-HT1B was -7%. At 5-HT1B, the inhibition at 10 µM was -3%. The “Spontaneous alternation versus vehicle” value in the series on male C57Bl/6 mice (0.3 mg/kg i.p. acute, p≤0.05) is on record as “improved the performance of spontaneous alternation”; in the series on male C57Bl/6 mice (1 mg/kg i.p. acute, p = 0.07), “improved the performance of spontaneous alternation”.
